The values that follow come from patent US8961930B2, “Isatin derivatives for use as in vivo imaging agents” (Imperial Innovations Limited, priority 2008, dated 2015).

Data set [1] is described as follows: In vivo metabolism studies, radio-HPLC of plasma, liver and urine. Details: species or system C3H/hej mice. The following applies: for Recovery (plasma): extraction efficiency; for Parent (liver) / Recovery (liver): individual results from two samples. Here is the method:
[^18F]11 was injected intravenously into tumor-bearing mice and its tissue distribution was measured in selected tissues at 2, 15 and 60 min after injection. […] Furthermore, the in vivo metabolic stability of the radiotracer was determined from plasma and liver samples and, for [^18F]11, in urine samples.
In vivo metabolism studies were also performed in C3H/hej mice. […] Plasma, liver and urine samples were snap-frozen in liquid nitrogen and kept in pre-weighed scintillation counting tubes on dry ice prior to analysis.
Immediately prior to extraction the samples were thawed and placed on ice. For extraction, ice cold acetonitrile (1.5 mL) was added to plasma (0.2 mL); S9 incubation samples (3 mL) containing acetonitrile were also analysed. Each mixture was centrifuged (15493×g, 4° C., 3 min) and the resulting supernatant was evaporated to dryness under vacuum at 40° C. using a rotary evaporator. Liver samples were homogenized with ice cold acetonitrile (1.5 mL) using an IKA Ultra-Turrax T-25 homogeniser prior to centrifugation. The residues were then re-suspended in HPLC mobile phase (1.2 mL) and filtered through a Minisart hydrophilic syringe filter (0.2 μm) (Sartorius, Goettingen, Germany). Urine samples were diluted with HPLC mobile phase, filtered as above. The samples (1 mL) were then analyzed by radio-HPLC on an Agilent 1100 series HPLC system (Agilent Technologies, Stockport, UK) equipped with a γ-RAM Model 3 gamma-detector and the Laura software (IN/US Systems inc., Florida, USA).
The stationary phase comprised of a Waters μBondapak C18 reverse-phase column (300×7.8 mm). […] Furthermore, to assess the fraction of [^18F]9-derived radioactivity associated with the plasma and liver pellets after extraction versus that remaining in the HPLC injectate, the total volume of HPLC injectate was recorded and an aliquot (0.1 mL) removed for counting. The radioactivity in the 0.1 mL aliquot and the pellet were then analyzed by gamma counting (Packard Instruments).

A further data set relates to PEO1 cells. Nature of the data set: In vitro [^18F]11 uptake in PEO1 cells. In kind it is cell-based, human. To be noted: 50 μg/mL CDDP, 60 min uptake. An excerpt: The human ovarian carcinoma cell lines PEO1/4 were established and characterised as described in Wolf C. R. et al.^22 and Langdon S. P. et al^23. Briefly, PEO1/4 cells were derived from the malignant ascites of a patient with a recurrent mucinous ovarian adenocarcinoma, before (PEO1) and after (PEO4) the onset of a clinical resistance to cisplatin chemotherapy in this patient. The radiation-induced murine fibrosarcoma (RIF-1) tumour cell line was originally characterised by Twentyman P. R. et al.^20. The LNM35 tumour cells are a highly lymphogenous metastatic subline of the human large pulmonary carcinoma NCI-H460 cell line, as described in Kozaki K. et al.^24. […]
Cells were plated in triplicate in 12-well plates 2 or 3 days prior to the experiments and treated with the antineoplastic platinum-derived drug Cisplatin, 5-FU, the protein synthesis inhibitor cycloheximide (CHX) or the topoisomerase inhibitor etoposide (VP-16) (Sigma, UK) or corresponding vehicle at the indicated concentration and time. […] 260 μL of each sample were transferred in counting tubes and Fluorine-18 radioactivity was immediately determined using a Packard Cobra II gamma counter (Perkin Elmer, UK). […] BCA Protein assay (Pierce, UK) was performed for all samples and datas are normalized and expressed as CCPMA or RLU (Relative Light Unit)/mg of protein.

The structures appear in SMILES notation. “And” between values parts separate entries of the source, which are not always exact repeats. Equal values may be shown once.

Turning to `O=C1C(=O)N(Cc2cn(CC[18F])nn2)c2ccc(S(=O)(=O)N3CCC[C@H]3COc3ccc(F)cc3F)cc21` [[^18F]11, (S)-1-((1-(2-Fluoroethyl)-1H-[1,2,3]-triazol-4-yl)methyl)-5-(2(2,4-difluorophenoxymethyl)-pyrrolidine-1-sulfonyl)isatin], the results for the “Recovery (plasma)” value in data set [1] (2 min), in data set [1] (15 min) and in data set [1] (60 min) were 92.1 ± 3.4%, 76.8 ± 5.2% and 50.9 ± 3.7%, respectively. The “Parent (liver)” value in data set [1] (2 min) was 35.7% and 43.4%; in data set [1] (15 min), 9.7% and 10.2%; in data set [1] (60 min), 27.0% and 29.7%. For the same compound, the “Recovery (liver)” value was 79.7% and 86.9% in data set [1] (2 min); 67.1% and 68.9% in data set [1] (15 min); 46.4% and 65.2% in data set [1] (60 min). Also, the “Parent (plasma)” value in data set [1] (2 min after i.v. injection, mice, radio-HPLC) was 86.1 ± 3.7%; in data set [1] (15 min after i.v. injection, mice, radio-HPLC), 61.3 ± 5.9%; in data set [1] (60 min after i.v. injection, mice, radio-HPLC), 64.8 ± 7.0%. Also, the “stability to metabolic degradation in vivo” value in data set [1] (radio-HPLC, plasma and liver, mice) is “relatively more stable to metabolic degradation than [^125I]14”. In addition, the “[^18F]11 uptake in drug-treated cells compared to control” value in the data set on PEO1 cells is listed as “significantly increased”.
